Measurements as given in PMC5742231 (Frontiers in Chemistry, 2017).

Experiments:
[1] = test system: Bacteriophage ΔTOX:GFP (ϕΔTOX:GFP); type: cell-based
S. aureus = conditions: cited from earlier work
[2] = test system: different bacterial strains; conditions: cited from earlier work

| Sequence | phages inactivated [1] | bacteriophage inactivation activity (in words) [1] | also measured |
| --- | --- | --- | --- |
| RIVQRIKKWLLKWKKLGY [Peptide 5] | ~100% |  |  |
| GLLKKWLKKWKEFKRIVGY [Peptide 2] |  | lowest inactivation activity | shape of phage neutralizing activity vs. concentration curve [1]: bell curve shaped behavior |
| RIVQRILKWLKKWYKLGK [Peptide 8] | ~100% |  |  |
| GLLRKWGKKWKEFLRRVWK [Peptide 6.2] | ~100% |  | shape of phage neutralizing activity vs. concentration curve [1]: bell curve shaped behavior |
| ILRWPWWPWRRK [Omiganan, reference compound] |  | no inactivation activity | antimicrobial activity against S. aureus (S. aureus): activity against S. aureus |
| MVVFSVPKFKSTVAKLLSSA [Random peptide, reference compound] |  | no inactivation activity | antimicrobial activity [2]: no antimicrobial activity |
| RIVQRIAKWAKKWYKAGK [Peptide 8.1] |  | lowest inactivation activity |  |
